Patent publication US20260137698A1, “CYCLIN-DEPENDENT KINASE 7 INHIBITORS” (JOINT STOCK COMPANY «BIOCAD», priority 2022, published 2026)
pIC50: −log10 of the molar value.

Tests used:
[1] = tested on: MDA-MB-468 (triple negative breast cancer); test: BrdU incorporation into DNA in MDA-MB-468 cells; assay type: cell-based; details: Homo sapiens, mean of multiple measurements
Text: Upon adding bromodeoxyuridine (BrdU) to dividing cells, Thymidine is replaced by its analogue, BrdU, and BrdU is incorporated into DNA. Thus, BrdU incorporated into DNA characterizes the intensity of DNA replication and ongoing S phase of the cell cycle. Reduced incorporation of bromodeoxyuridine into DNA under the action of the compounds characterizes a slowdown in the cell cycle and DNA replication.
The ability of the CDK7 inhibitors according to the present invention to inhibit the incorporation of BrdU into DNA was evaluated in a cell test on continuous cell cultures: MDA-MB-468 (triple negative breast cancer, ATCC® HTB-132™) using a BrdU detection kit (Roche, order no. 11 669 915 001)). The cells were grown in DMEM medium (PanEco, order no. C330π). The basal growth medium was enriched with L-glutamine at a concentration of 2 mM (PanEco, order no. Φ032) and 10% fetal bovine serum (Gibco, order no. 16140-071). MDA-MB-468 adherent cells were detached from plastic with a solution of trypsin-EDTA (PanEco, order no. Π039π), the solution was then inactivated by a DMEM complete medium, centrifuged at 1000 RPM (Eppendorf, 5804 R), a suspension of cells was prepared in a DMEM complete medium, introduced into 96-well culture plates (Corning Inc, order no. 3599) at 4×10^3 cells in 75 μl of medium per well. Test compounds were dissolved in DMSO and diluted with a DMEM complete medium to a final concentration ranging from 0.5 μM to 2 μM. Serum-free growth medium was removed from plate wells, and solutions comprising diluted compounds in the volume of 100 μl in basal growth medium were added. Candidates were introduced into the plate wells with cells in triplicates (the final concentration of DMSO was no more than 1%) and incubated at 37° C. in an incubator with 5% CO2 for 24 hours. Following incubation, 10 μl of solution of BrdU at a concentration of 10 μM was added to wells, the contents of the plates were agitated on an orbital shaker (Biosan, Latvia), and incubated for additional 72 hours at 37° C. in an incubator with 5% CO2. Incorporated BrdU was then detected according to the guidelines of the kit manufacturer. […] 100 μl of substrate solution was introduced into each analyzed well and incubated for 3 minutes at room temperature (+15-25° C.) on an orbital shaker (Biosan, Latvia) and for another 5-7 minutes without stirring.
The amount of incorporated BrdU was detected on the Infinite M200Pro microplate spectrophotometer (Tecan Group Ltd, Switzerland) by measuring the luminescent signal. IC50 value was calculated using the Magellan software (Tecan Group Ltd, Switzerland) by approximating experimental points by four-parameter model with the optimization by Levenberg-Marquardt.

[2] = Blood-brain barrier permeability: PK in mice brain homogenate following oral administration; assay type: in vivo, CD-1 mice; details: male, CD-1, mouse, dose 10 mg/kg; for Kp: brain homogenate / plasma, mice, read-out: AUCbrain/AUCplasma; for AUC(0-t) / Cmax / Tmax / half-life: mice brain homogenate; for half-life: read-out: t½ (converted)
Protocol: The ability of substances to penetrate the blood-brain barrier and enter the central nervous system (mouse brain) was evaluated by the ratio of their areas under pharmacokinetic curves in […] and blood plasma following oral administration, characterizing tissue bioavailability to the […], and expressed as the AUCbrain/AUCplasma coefficient.
Pharmacokinetic studies of the compounds were carried out on CD-1 mice, males, aged about 8 weeks, weighing 16-29 g. Animals were subjected a single oral (PO) administration (intragastrically) at a dose of 10 mg/kg in a formulation in the form of a 0.2% solution of hydroxypropyl methylcellulose (HPMC) in a 5% aqueous solution of glucose.
21 animals were used for each substance. All mice were weighed and randomized before dosing.
3 animals were used for each time point. Biomaterials were collected from each animal at one time point. At least 12 h before the start of the experiment, the animals were deprived of food while maintaining free access to water. Blood and brain samples were collected 0.5, 2, 4, 6, 8, 12 and 16 h after administration of the substance.
All manipulations were carried out analogously to Example 54.
Perfusion of mice brains was carried out with saline solution via the vascular system. To this end, the chest was opened, the right atrium was incised with microsurgical scissors, and saline cooled to 4° C. was administered using a 10-ml syringe into the left ventricle until the liver turned white. After washing, the skull was opened and the brain removed, it was weighed and transferred to labeled 5 ml tubes.
A 4-fold volume of water was added to the brain suspension and homogenized using a homogenizer (Omni Bead Ruptor 24) 2 times for 45 seconds. Analogously, the intact mice brain homogenate was prepared, which was then used to prepare calibration samples and QC samples. The calibration curve was generated by analyzing brain homogenate samples with supplementations of known amounts of the standard of the compound being determined.
Samples were precipitated with cooled acetonitrile at 1:4 ratio, containing the internal standard tolbutamide (Sigma, T0891) at a concentration of 50 ng/ml. Samples were stirred on a vortex mixer (G560E, Scientific Industries) for 10 seconds and kept at 4° C. for 15 minutes to precipitate proteins, then centrifuged (5417R centrifuge, Eppendorf) for 10 minutes at 1500 g. […] of supernatants were collected and transferred to corresponding wells of a 96-well plate for HPLC-MS/MS analysis. Quantitative determination of test compounds in brain homogenates was carried out analogously to the procedure described in Example 54. Lower limit of quantitative determination of test compounds in brain homogenate was 0.3 ng/ml.
Pharmacokinetic analysis of data was performed analogously to the procedure described in Example 54.
In addition to main PK parameters, the ratio of concentration in the brain and plasma at the studied time points (AUCbrain/AUCplasma) was calculated to assess bioavailability in the brain (permeability through the blood-brain barrier).

Compound | pIC50 [1] | Kp [2] | AUC(0-t) [2] | Cmax [2] | Tmax [2] | half-life [2]
CN1CCCc2c(-c3nc(N[C@H]4CCC(C)(C)NC4)ncc3C(F)(F)F)c[nH]c2C1=O [CDK7_1187, 3-(2-{[(3S)-6,6-dimethylpiperidin-3-yl]amino}-5-(trifluoromethyl)py-rimidin-4-yl)-7-methyl-1H,4H,5H,6H,7H, 8H-pyrrolo[2,3-c]azepin-8-one] | 7.85 | – | – | – | – | –
O=C1c2[nH]cc(-c3nc(N[C@H]4CCC5(CC5)NC4)ncc3C(F)(F)F)c2CCCN1C1CC1 [CDK7_1276, 3-(2-{[(6S)-4-azaspiro[2.5]octan-6-yl]amino}-5-(trifluoromethyl)py-rimidin-4-yl)-7-cyclopropyl-1H,4H,5H,6H,7H, 8H-pyrrolo[2,3-c]azepin-8-one] | 8.70 | 0.243 | 1940 ng·h/mL | 335 ng/mL | 0.5 h | 1.99 h
CC(C)N1CCCc2c(-c3nc(N[C@H]4CCC5(CC5)NC4)ncc3C(F)(F)F)c[nH]c2C1=O [CDK7_1277, 3-(2-{[(6S)-4-azaspiro[2.5]octan-6-yl]amino}-5-(trifluoromethyl)py-rimidin-4-yl)-7-(propan-2-yl)-1H,4H,5H,6H,7H, 8H-pyrrolo[2,3-c]azepin-8-one] | – | 0.302 | 1750 ng·h/mL | 226 ng/mL | 2 h | 2.76 h

More lines, main results first:

pIC50 [1] | Compound | Kp [2] | AUC(0-t) [2] | Cmax [2] | Tmax [2] | half-life [2]
7.62 | CC1(C)CC[C@H](Nc2ncc(C(F)(F)F)c(-c3c[nH]c4c3CCCN(C3CC3)C4=O)n2)CN1 [CDK7_1225, 7-cyclopropyl-3-(2-{[(3S)-6,6-dimethylpiperidin-3-yl]amino}-5-(trifluoromethyl)py-rimidin-4-yl)-1H,4H,5H,6H,7H, 8H-pyrrolo[2,3-c]azepin-8-one] | 0.165 | 855 ng·h/mL | 93.8 ng/mL | 6 h | 2.33 h
7.55 | CC(C)N1CCCc2c(-c3nc(N[C@H]4CCC(C)(C)NC4)ncc3C(F)(F)F)c[nH]c2C1=O [CDK7_1229, 3-(2-{[(3S)-6,6-dimethylpiperidin-3-yl]amino}-5-(trifluoromethyl)py-rimidin-4-yl)-7-(propan-2-yl)-1H,4H,5H,6H,7H, 8H-pyrrolo[2,3-c]azepin-8-one] | 0.182 | 909 ng·h/mL | 136 ng/mL | 0.5 h | 2.25 h
